These results are taken from ChEMBL document CHEMBL2021774, “Rapid development of piperidine carboxamides as potent and selective anaplastic lymphoma kinase inhibitors” (J Med Chem, 2012).

Bounds are passed on as bounds.

Experiment [1] has as its target Insulin-like growth factor 1 receptor (Homo sapiens, UniProt P08069).
In experiment [2] the target is T1, ALK tyrosine kinase receptor (Homo sapiens, UniProt Q9UM73).
Experiment [3] deals with T1, ALK tyrosine kinase receptor. This is another data set of the same source.
Description: Inhibition of ALK phosphorylation in human Karpas-299 cells after 1 hr

Chain of Insulin-like growth factor 1 receptor (P08069 31-736 limits assumed): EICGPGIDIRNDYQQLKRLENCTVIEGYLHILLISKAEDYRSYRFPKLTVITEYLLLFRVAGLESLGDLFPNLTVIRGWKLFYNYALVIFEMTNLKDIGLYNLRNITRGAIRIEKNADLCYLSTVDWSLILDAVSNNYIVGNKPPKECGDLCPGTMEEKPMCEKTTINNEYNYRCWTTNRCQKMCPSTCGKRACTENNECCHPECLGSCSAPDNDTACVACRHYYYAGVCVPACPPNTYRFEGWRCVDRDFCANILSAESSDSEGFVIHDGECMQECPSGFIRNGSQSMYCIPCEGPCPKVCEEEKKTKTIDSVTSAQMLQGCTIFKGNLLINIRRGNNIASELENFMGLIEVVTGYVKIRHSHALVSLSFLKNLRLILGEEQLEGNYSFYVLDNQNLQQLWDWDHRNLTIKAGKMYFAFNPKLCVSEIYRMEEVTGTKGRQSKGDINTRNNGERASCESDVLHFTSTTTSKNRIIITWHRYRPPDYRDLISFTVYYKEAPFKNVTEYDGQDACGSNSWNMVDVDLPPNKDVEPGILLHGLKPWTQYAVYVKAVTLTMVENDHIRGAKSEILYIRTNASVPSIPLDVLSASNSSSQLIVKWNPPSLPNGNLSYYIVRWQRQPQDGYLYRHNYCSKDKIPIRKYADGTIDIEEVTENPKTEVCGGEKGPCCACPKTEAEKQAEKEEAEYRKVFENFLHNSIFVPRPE
Chain of Insulin-like growth factor 1 receptor (P08069 741-1367 limits assumed): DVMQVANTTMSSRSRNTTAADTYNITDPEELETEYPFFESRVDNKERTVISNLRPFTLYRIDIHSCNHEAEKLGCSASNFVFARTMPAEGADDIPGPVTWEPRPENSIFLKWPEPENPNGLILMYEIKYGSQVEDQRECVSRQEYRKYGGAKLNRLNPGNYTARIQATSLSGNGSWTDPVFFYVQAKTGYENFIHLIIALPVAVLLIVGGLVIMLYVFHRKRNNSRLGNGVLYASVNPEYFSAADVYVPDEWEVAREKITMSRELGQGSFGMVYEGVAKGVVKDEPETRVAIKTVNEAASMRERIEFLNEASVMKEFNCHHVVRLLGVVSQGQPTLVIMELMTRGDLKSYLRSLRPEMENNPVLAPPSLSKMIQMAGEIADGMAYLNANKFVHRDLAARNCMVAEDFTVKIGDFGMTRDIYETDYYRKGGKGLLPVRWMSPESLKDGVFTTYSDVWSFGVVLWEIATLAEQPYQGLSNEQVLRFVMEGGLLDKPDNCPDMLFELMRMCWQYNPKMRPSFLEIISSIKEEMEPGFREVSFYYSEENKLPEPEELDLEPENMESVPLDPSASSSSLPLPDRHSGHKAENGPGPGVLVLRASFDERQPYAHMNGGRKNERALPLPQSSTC
T1 sequence (Q9UM73 whole entry): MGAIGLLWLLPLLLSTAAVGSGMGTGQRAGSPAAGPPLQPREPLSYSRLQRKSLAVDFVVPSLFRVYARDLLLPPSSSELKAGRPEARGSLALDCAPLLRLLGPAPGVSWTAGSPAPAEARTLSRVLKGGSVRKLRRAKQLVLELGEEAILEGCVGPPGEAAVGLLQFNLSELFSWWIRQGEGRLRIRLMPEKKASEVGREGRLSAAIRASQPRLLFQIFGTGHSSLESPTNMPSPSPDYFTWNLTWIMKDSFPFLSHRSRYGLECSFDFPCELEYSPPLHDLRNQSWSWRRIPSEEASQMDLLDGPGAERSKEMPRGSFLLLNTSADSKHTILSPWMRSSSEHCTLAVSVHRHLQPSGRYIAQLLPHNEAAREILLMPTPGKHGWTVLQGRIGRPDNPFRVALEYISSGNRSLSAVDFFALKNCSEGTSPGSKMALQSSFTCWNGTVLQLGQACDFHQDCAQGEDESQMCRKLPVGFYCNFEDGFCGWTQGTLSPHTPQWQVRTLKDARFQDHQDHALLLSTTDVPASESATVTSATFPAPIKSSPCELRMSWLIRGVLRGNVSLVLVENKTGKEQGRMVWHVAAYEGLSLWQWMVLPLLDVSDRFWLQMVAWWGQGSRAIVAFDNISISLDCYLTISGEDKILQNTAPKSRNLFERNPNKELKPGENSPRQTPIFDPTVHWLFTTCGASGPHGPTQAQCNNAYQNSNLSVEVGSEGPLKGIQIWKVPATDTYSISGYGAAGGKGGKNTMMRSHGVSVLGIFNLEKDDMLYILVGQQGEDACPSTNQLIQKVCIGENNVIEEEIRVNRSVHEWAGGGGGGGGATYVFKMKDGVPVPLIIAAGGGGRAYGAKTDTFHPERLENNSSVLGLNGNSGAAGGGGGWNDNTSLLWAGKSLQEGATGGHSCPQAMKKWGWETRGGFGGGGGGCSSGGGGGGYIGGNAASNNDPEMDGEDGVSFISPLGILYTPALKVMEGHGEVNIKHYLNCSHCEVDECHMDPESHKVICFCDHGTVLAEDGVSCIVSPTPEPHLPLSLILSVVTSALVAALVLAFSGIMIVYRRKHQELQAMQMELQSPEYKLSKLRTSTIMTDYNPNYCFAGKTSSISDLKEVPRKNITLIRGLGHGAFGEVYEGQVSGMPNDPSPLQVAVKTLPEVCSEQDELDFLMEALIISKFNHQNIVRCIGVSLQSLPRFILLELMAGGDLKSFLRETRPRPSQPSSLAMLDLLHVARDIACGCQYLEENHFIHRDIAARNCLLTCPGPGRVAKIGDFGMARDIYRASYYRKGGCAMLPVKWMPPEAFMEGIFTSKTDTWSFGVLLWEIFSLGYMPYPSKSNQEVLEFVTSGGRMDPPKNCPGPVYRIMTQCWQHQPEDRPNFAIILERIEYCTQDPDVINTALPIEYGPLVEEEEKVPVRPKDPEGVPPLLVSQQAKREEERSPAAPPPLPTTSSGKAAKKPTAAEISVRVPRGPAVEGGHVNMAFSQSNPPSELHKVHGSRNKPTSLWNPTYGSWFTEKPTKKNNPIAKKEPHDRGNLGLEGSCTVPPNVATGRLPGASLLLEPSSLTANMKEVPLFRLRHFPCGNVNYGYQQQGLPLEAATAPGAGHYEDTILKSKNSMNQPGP

On to `COc1cc(Nc2nccc(N3CCC[C@H](C(=O)NCc4ccc([N+](=O)[O-])cc4)C3)n2)cc(OC)c1OC`, for which the results for the half-inhibitory concentration (IC50) in experiment [1] and in experiment [2] were > 25 µM and 2.93 µM, respectively. With `CCc1cccc(Nc2nccc(N3CCC[C@H](C(=O)NCc4ccc(C)cc4)C3)n2)c1`, the IC50 (usually the point on the concentration scale where inhibition reaches its midpoint) in experiment [1] is > 25 µM. `Cc1ccc(CNC(=O)[C@H]2CCCN(c3ccnc(NCc4ccccc4)n3)C2)cc1`: the concentration for half-maximal inhibition (IC50) in experiment [1] and in experiment [2] was > 25 µM in each case. In the case of `Cc1ccc(CNC(=O)[C@H]2CCCN(c3ccnc(Nc4cccc(Cl)c4)n3)C2)cc1`, in experiment [1], the IC50 was > 25 µM. As to `Cc1ccc(CNC(=O)[C@H]2CCCN(c3ccnc(Nc4ccc5c(c4)OCCO5)n3)C2)cc1`, the IC50 in experiment [1] was > 25 µM. For the compound `COc1cc(Nc2nccc(N3CCC[C@H](C(=O)NCc4ccc(-c5ccccc5)cc4)C3)n2)cc(OC)c1OC`, the 50% inhibitory concentration (IC50) in experiment [1] is > 25 µM. In the case of `COc1cc(Nc2nccc(N3CCC[C@H](C(=O)NCCCc4ccccc4)C3)n2)cc(OC)c1OC`, in experiment [2], the concentration for half-maximal inhibition (IC50) stood at 6.71 µM. This lies in the single-digit micromolar range. With `Cc1ccc(CNC(=O)[C@H]2CCCN(c3ccnc(Nc4ccc(Cl)cc4)n3)C2)cc1`, the IC50 was > 25 µM in experiment [1] and 6.3 µM in experiment [2].

Consider `COc1cc(Nc2nccc(N3CCC[C@H](C(=O)NCc4cccc(N5CCOCC5)c4)C3)n2)cc(OC)c1OC`, for which the IC50 in experiment [3] stood at 28 nM; in experiment [2], 0.031 µM. For the compound `Cc1ccc(CNC(=O)[C@H]2CCCN(c3ccnc(Nc4ccccc4)n3)C2)cc1`, the IC50 in experiment [1] is > 25 µM. On the same count and under the same terms, as for `COc1ccc(Nc2nccc(N3CCC[C@H](C(=O)NCc4ccc(C)cc4)C3)n2)cc1`, the figure is > 25 µM. With `COc1ccc(Nc2nccc(N3CCC[C@H](C(=O)NCc4ccc(C)cc4)C3)n2)cc1OC`, the IC50 in experiment [1] was > 25 µM. For the compound `COc1cc(Nc2nccc(N3CCC[C@@H](C(=O)NCc4ccc(C)cc4)C3)n2)cc(OC)c1OC`, the half-inhibitory concentration (IC50) in experiment [1] was > 25 µM. Consider `CCc1ccc(Nc2nccc(N3CCC[C@H](C(=O)NCc4ccc(C)cc4)C3)n2)cc1`, for which the half-maximal inhibitory concentration (IC50) in experiment [1] was > 25 µM. In the case of `CNc1nccc(N2CCC[C@H](C(=O)NCc3ccc(C)cc3)C2)n1`, the IC50 in experiment [1] and in experiment [2] was > 25 µM in each case. `COc1cc(Nc2nccc(N3CCC[C@H](C(=O)NCCc4ccccc4)C3)n2)cc(OC)c1OC`: in experiment [1], the concentration for half-maximal inhibition (IC50) was > 25 µM. In experiment [1], `COc1cc(Nc2nccc(N3CCC[C@H](C(=O)NCc4ccc(C)cc4)C3)n2)cc(OC)c1OC` displayed an IC50 of 4.61 µM. Same read-out and setting: then `COC(=O)c1ccc(CNC(=O)[C@H]2CCCN(c3ccnc(Nc4cc(OC)c(OC)c(OC)c4)n3)C2)cc1`, with > 25 µM.
